From BindingDB's records for doi:10.1111/j.1747-0285.2009.00833.x (Bayer Healthcare, 2009)

Target: Heat shock protein HSP 90-alpha (Homo sapiens, UniProt P07900)
Test: Competition Assay
Settings: pH 7.4
Source text: To assess the affinity of compounds binding to Hsp90, we measured their ability to compete with the binding of a fluorescent analog of GA (GM-Bodipy) to Hsp90 using fluoresence polarization.

Compared with `CCOC(=O)NCc1ccc(-n2c(-c3cc(C(C)C)c(O)cc3O)n[nH]c2=S)cc1` [BX-2819], `CCOC(=O)NCc1ccc(-n2c(-c3ccc(O)cc3O)n[nH]c2=S)cc1` [Ethyl carbamate analog, 3] is 2.5-fold higher in IC50: 0.04 nM for the first, 0.1 nM for the second. The first is the more potent here.

`CCc1cc(-c2nnc(S)n2-c2cccc3ccccc23)c(O)cc1O` [Ethyl analog, 4] and `Oc1ccc(-c2nnc(S)n2-c2cccc3ccccc23)c(O)c1` [Resorcinol analog, 1] are within 1.5-fold of each other in IC50: 0.2 nM for the first, 0.3 nM for the second.

Going from `Oc1ccc(-c2nnc(S)n2-c2ccccc2)c(O)c1` [Unsubstituted phenyl ring analog, 2] to `CC(C)c1cc(-c2n[nH]c(=S)n2-c2cccc3ccccc23)c(O)cc1O` [lspropyl analog, 5], the IC50 falls from 0.5 nM to 0.1 nM (5-fold).
